{"source": "ChEMBL document CHEMBL5620403", "about": "“Design, synthesis, activity and molecular dynamics studies of 1,3,4-thiadiazole derivatives as selective allosteric inhibitors of SHP2 for the treatment of cancer” (Eur J Med Chem, 2023)", "key": {"[1]": {"target": "Tyrosine-protein phosphatase non-receptor type 6 (Homo sapiens, UniProt P29350)", "sequence (P29350 whole entry, the tested form may be a part)": "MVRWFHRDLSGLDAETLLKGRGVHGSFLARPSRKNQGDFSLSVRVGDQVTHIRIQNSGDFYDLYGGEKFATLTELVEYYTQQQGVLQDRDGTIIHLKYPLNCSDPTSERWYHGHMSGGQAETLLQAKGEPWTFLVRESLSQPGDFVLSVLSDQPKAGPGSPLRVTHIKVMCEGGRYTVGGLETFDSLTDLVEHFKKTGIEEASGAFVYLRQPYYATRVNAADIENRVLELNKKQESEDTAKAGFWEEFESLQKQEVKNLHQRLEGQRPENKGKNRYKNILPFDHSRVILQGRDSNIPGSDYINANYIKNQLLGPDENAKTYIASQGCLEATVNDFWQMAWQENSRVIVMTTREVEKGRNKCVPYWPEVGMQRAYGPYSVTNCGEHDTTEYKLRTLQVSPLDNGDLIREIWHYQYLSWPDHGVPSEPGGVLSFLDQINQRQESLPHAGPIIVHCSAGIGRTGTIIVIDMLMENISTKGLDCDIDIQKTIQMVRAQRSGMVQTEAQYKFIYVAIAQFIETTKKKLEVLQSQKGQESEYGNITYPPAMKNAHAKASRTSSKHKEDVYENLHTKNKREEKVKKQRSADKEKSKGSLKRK", "experiment": "Inhibition of full length recombinant human SHP1 (1 to 570 residues) using DIPMUP as substrate preincubated for 30 mins followed by substrate addition and measured after 30 mins by fluorescence based analysis"}, "MV4-11 [2]": {"tested_on": "MV4-11", "experiment": "Induction of apoptosis in human MV4-11 cells assessed as necrotic cells at 5 uM measured after 4 hrs by Annexin V-FITC/7-AAD staining based flow cytometric analysis (reference value: 0.068%)", "type": "functional"}, "MV4-11 [3]": {"tested_on": "MV4-11", "experiment": "Induction of apoptosis in human MV4-11 cells assessed as early apoptotic cells at 5 uM measured after 4 hrs by Annexin V-FITC/7-AAD staining based flow cytometric analysis (reference value: 2.13%)", "type": "functional"}, "MV4-11 [4]": {"tested_on": "MV4-11", "experiment": "Induction of apoptosis in human MV4-11 cells assessed as early apoptotic cells at 5 uM measured after 4 hrs by Annexin V-FITC/7-AAD staining based flow cytometric analysis (reference value: 2.48%)", "type": "functional"}, "MV4-11 [5]": {"tested_on": "MV4-11", "experiment": "Induction of apoptosis in human MV4-11 cells assessed as viable cells at 5 uM measured after 1 hrs by Annexin V-FITC/7-AAD staining based flow cytometric analysis (reference value: 96.8%)", "type": "functional", "conditions": "read-out: Activity"}, "MV4-11 [6]": {"tested_on": "MV4-11", "experiment": "Induction of apoptosis in human MV4-11 cells assessed as viable cells at 5 uM measured after 4 hrs by Annexin V-FITC/7-AAD staining based flow cytometric analysis (reference value: 95.9%)", "type": "functional", "conditions": "read-out: Activity"}, "MV4-11 [7]": {"tested_on": "MV4-11", "experiment": "Induction of apoptosis in human MV4-11 cells assessed as late apoptotic cells at 5 uM measured after 4 hrs by Annexin V-FITC/7-AAD staining based flow cytometric analysis (reference value: 0.98%)", "type": "functional"}, "MV4-11 [8]": {"tested_on": "MV4-11", "experiment": "Induction of apoptosis in human MV4-11 cells assessed as early apoptotic cells at 5 uM measured after 1 hrs by Annexin V-FITC/7-AAD staining based flow cytometric analysis (reference value: 2.13%)", "type": "functional"}, "MV4-11 [9]": {"tested_on": "MV4-11", "experiment": "Induction of apoptosis in human MV4-11 cells assessed as necrotic cells at 5 uM measured after 1 hrs by Annexin V-FITC/7-AAD staining based flow cytometric analysis (reference value: 0.068%)", "type": "functional"}, "NCI-H358": {"tested_on": "NCI-H358", "experiment": "Antiproliferative activity against human NCI-H358 cells assessed as inhibition of cell growth measured after 72 hrs by CCK8 method", "type": "functional, cell-based", "conditions": "NCI-H358, 72 h"}, "MV4-11 [10]": {"tested_on": "MV4-11", "experiment": "Induction of apoptosis in human MV4-11 cells assessed as viable cells at 5 uM measured after 2 hrs by Annexin V-FITC/7-AAD staining based flow cytometric analysis (reference value: 96.8%)", "type": "functional", "conditions": "read-out: Activity"}, "A549": {"tested_on": "A549", "experiment": "Antiproliferative activity against human A549 cells assessed as inhibition of cell growth measured after 72 hrs by CCK8 method", "type": "functional, cell-based", "conditions": "A549, 72 h"}}}
{"smiles": "C[C@@H]1OCC2(CCN(c3nnc(Sc4cccc(Cl)c4Cl)s3)CC2)[C@@H]1N", "values": [{"measurement": "IC50", "setting": "[1]", "result": "> 50", "unit": "µM"}, {"measurement": "Activity", "setting": "MV4-11 [2]", "result": 1.38, "unit": "%"}, {"measurement": "Activity", "setting": "MV4-11 [3]", "result": 10.8, "unit": "%"}, {"measurement": "Activity", "setting": "MV4-11 [4]", "result": 8.42, "unit": "%"}, {"measurement": "viability at 5 µM", "setting": "MV4-11 [5]", "result": 90, "unit": "%"}, {"measurement": "viability at 5 µM", "setting": "MV4-11 [6]", "result": 84.1, "unit": "%"}, {"measurement": "Activity", "setting": "MV4-11 [7]", "result": 7.78, "unit": "%"}, {"measurement": "Activity", "setting": "MV4-11 [8]", "result": 4.74, "unit": "%"}, {"measurement": "Activity", "setting": "MV4-11 [9]", "result": 0.91, "unit": "%"}, {"measurement": "IC50", "setting": "NCI-H358", "result": 12, "unit": "µM"}, {"measurement": "viability at 5 µM", "setting": "MV4-11 [10]", "result": 80.9, "unit": "%"}, {"measurement": "IC50", "setting": "A549", "result": 12.1, "unit": "µM"}]}
